From PMC3304000 (Bioorganic & medicinal chemistry, 2012) come the findings set out here.

Common to all, as to experiment: microbe, parasite or virus in culture
Type in all cases: cell-based
Common to all, as to conditions: Mycobacterium tuberculosis

Experiment [1] has as its system MDR-TB resistant to HREZSKP.
In experiment [2] the test system is MDR-TB resistant to HREKP.
The test system of experiment [3] is MDR-TB resistant to HRERb.
Experiment [4] has as its system XDR-TB resistant to HRESKO.
Experiment [5] has as its system XDR-TB resistant to HREKO.
The mark [6] stands for this setting: MDR-TB resistant to HRERb (isoniazid, rifampin, ethambutol, rifabutin).
The mark [7] stands for this setting: MDR-TB resistant to HRERb, value in parentheses.

Values after ≈ are worked out from the molar mass of the structure shown. Values joined by “and” are separate entries in the source; they are usually repeats but may differ in a detail not shown here. Equal entries are not always repeated.

For the compound `O=[N+]([O-])c1cn2c(n1)OC[C@@H](OCc1ccc(OC(F)(F)F)cc1)C2` [PA-824, reference compound], the MIC in experiment [1] is 0.45 µM to 0.86 µM and 0.16 µg/mL to 0.31 µg/mL; in experiment [2], 0.45 µM to 0.86 µM and 0.16 µg/mL to 0.31 µg/mL; in experiment [3] (setting [6]), 0.45 to 0.86 µM; in experiment [3] (setting [7]), 0.16 to 0.31 µg/mL; in experiment [4], 0.31 µg/mL (≈ 0.863 µM); in experiment [5] it was 0.08 µg/mL (≈ 0.223 µM).
For the compound `O=C(OCc1ccccc1)c1csc(-c2ccccc2)n1` [Compound 5], the MIC in experiment [1] was found to be 10 µg/mL (≈ 33.9 µM); in experiment [2], 1.25 µg/mL (≈ 4.23 µM); in experiment [3] (setting [7]), 10 µg/mL; in experiment [4], 5 µg/mL (≈ 16.9 µM); in experiment [5], 5 µg/mL (≈ 16.9 µM).
As to `Cc1ccn2c(C(=O)OCc3ccccc3)c(C)nc2c1` [Compound 11, benzyl 2,7-dimethylimidazo[1,2-a]pyridine-3-carboxylate], the MIC in experiment [1] is less than 0.01 µg/mL; in experiment [2], less than 0.01 µg/mL; in experiment [3] (setting [6]) it was 0.6 µM; in experiment [3] (setting [7]), 0.16 µg/mL; in experiment [4], less than 0.01 µg/mL; in experiment [5], less than 0.01 µg/mL.
On to `O=C(OCc1ccccc1)c1coc(-c2ccccc2)n1` [Compound 2], for which the MIC in experiment [1] is 2.5 µg/mL (≈ 8.95 µM); in experiment [2], 0.3 µg/mL (≈ 1.07 µM); in experiment [3] (setting [7]) it was 2.5 µg/mL; in experiment [4], 1.25 µg/mL (≈ 4.48 µM); in experiment [5] it was 2.5 µg/mL (≈ 8.95 µM).
